Here are results for four compounds from patent publication US20250144046A1, “PHARMACEUTICAL COMPOSITIONS AND METHODS OF ADMINISTRATION” (METASTX, LLC, priority 2022, published 2025).

The subject of data set [1] is PC3 cells. Kind of data set: MTT assay, cancer cell metabolic activity and proliferation. Format: cell-based. The conditions noted are these: Homo sapiens, PC-3, 24 h treatment, read-out: IC50, anti-proliferative effect (MTT). How it is done: A MTT (3-[4,5-dimethylthiazol-2-yl]-2,5 diphenyl tetrazolium bromide) assay was used to assess cancer cell metabolic activity and proliferation.
The protocol was as follows: • A total of 4000 PC3 cells were seeded per well in 96-well plates. Following attachment, cells were treated with vehicle control DMSO, IPA3, Compound 1, Compound 3, and Compound 4 at various doses as indicated for 24 h. Growth inhibition was determined by MTT [3-(4,5-dimethylthiazol-2-yl)-2,5-diphenyltetrazolium bromide] (Sigma-Aldrich, St. Louis, MO, USA; catalog No. M2128) assay. The MTT solution was added to the media at a final concentration of 0.8 mg/mL and cells were incubated at 37° C. for 2 hours. After aspiration of media, formazan crystals were dissolved in 100 μl of DMSO. Optical densities were measured at 570 nm using a SynergyHT plate reader (BioTek. Winooski. […]. USA). To calculate IC50 values. GraphPad Prism Software was used (GraphPad Software. San Diego, CA. USA).
(In general: Tetrazolium assays rely on reduction of a dye to a coloured formazan, in cell work by metabolically active cells.)

The subject of data set [2] is PC3 cells. Kind of data set: Cell-monolayer scratch assay (cell motility). The format is cell-based, human. Conditions: 36 hours, half of the IC50 doses from the MTT assay. The protocol:
The motility of cancer cells is an index of their ability to come out of the primary tumor, invade, and metastasize to distant tissues. MetasTx tested Compound 1. Compound 3, and Compound 4 for their inhibitory effect on human metastatic prostate cancer (PC3) cells by using a ‘cell-monolayer scratch assay”, a reliable technique to determine the rate of cancer cell motility.
A total of 0.5×10^5 PC3 cells were plated per well on 6 well plates to obtain 95% confluent monolayers of cells after overnight incubation. The following day, a linear scratch (wound) was made using a 200 μl pipette tip and the detached cells were washed away by sterile phosphate-buffered saline (PBS). Images of scratches were captured from three different locations under a phase-contrast microscope at 4× magnification. The monolayers were treated with the desired doses of vehicle or drugs (half of the IC50 doses determined from the MTT assay). The cells were allowed to migrate for 36 hours, and images of the wound were re-captured from the same locations. The percentage of healed areas was determined using the NIH ImageJ software by measuring the distance of imported images in Microsoft Office PowerPoint (Microsoft Office Inc.) at the same magnification.

Data set [3] concerns PC3 cells. The data set is described as follows: Annexin V-PE / 7-AAD apoptosis and necrosis assay (flow cytometry). The conditions noted are these: 24 hours treatment. The format is cell-based, human. The protocol: The anti-cancer efficacy of a drug was also evaluated based on the ability of the compound to induce apoptosis and/necrosis in cancer cells. […] Compound 1. Compound 3, and Compound 4 were tested based on their ability to induce apoptosis and necrosis in vitro. The protocol was as follows:
The apoptotic death of cells was determined using an Annexin V-PE apoptosis detection kit (Cat #559763; BD Biosciences. CA. USA) according to the manufacturer's protocol. In brief. PC3 cells were treated with DMSO (0.3%). IPA3. Compound 1. Compound 3 and Compound 4 for 24 hours. At the end of treatment, cells were trypsinized, washed with PBS and stained with annexin V-Phycoerythrin (PE) and 7-Amino-Actinomycin (7-AAD). The stained cells were analyzed using a flow cytometer within 1 h of staining.
In general terms: In flow cytometry, cells or beads pass a laser one at a time.

Another data set deals with PAK5 (Homo sapiens, UniProt Q9P286). The conditions noted are these: group II PAK; cited from earlier work.
Another data set concerns the target PAK6 (Homo sapiens, UniProt Q9NQU5). Conditions: group II PAK; cited from earlier work.
The next data set has as its target PAK4 (Homo sapiens, UniProt O96013). Conditions: group II PAK; cited from earlier work.
For data set [4] the following is noted: cited from earlier work.

Sequence of PAK6 (Q9NQU5 whole entry, species assumed): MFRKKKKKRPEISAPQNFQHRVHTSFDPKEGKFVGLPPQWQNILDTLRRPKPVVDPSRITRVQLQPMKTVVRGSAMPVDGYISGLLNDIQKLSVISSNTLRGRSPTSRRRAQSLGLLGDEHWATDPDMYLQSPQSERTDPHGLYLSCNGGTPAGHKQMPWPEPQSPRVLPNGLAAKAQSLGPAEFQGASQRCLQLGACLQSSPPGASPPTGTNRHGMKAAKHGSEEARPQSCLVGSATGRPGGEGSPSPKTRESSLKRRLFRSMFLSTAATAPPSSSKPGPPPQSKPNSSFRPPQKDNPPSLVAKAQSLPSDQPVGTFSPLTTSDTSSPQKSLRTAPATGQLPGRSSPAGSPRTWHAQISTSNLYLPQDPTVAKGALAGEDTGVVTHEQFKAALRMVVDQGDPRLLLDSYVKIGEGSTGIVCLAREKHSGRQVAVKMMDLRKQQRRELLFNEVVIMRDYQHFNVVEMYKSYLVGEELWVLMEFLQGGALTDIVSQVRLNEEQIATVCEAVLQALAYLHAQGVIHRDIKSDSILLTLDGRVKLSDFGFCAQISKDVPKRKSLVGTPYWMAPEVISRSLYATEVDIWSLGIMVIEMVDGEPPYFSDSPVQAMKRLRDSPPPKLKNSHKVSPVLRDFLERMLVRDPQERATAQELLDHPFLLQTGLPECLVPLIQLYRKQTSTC
Sequence of PAK5 (Q9P286 whole entry): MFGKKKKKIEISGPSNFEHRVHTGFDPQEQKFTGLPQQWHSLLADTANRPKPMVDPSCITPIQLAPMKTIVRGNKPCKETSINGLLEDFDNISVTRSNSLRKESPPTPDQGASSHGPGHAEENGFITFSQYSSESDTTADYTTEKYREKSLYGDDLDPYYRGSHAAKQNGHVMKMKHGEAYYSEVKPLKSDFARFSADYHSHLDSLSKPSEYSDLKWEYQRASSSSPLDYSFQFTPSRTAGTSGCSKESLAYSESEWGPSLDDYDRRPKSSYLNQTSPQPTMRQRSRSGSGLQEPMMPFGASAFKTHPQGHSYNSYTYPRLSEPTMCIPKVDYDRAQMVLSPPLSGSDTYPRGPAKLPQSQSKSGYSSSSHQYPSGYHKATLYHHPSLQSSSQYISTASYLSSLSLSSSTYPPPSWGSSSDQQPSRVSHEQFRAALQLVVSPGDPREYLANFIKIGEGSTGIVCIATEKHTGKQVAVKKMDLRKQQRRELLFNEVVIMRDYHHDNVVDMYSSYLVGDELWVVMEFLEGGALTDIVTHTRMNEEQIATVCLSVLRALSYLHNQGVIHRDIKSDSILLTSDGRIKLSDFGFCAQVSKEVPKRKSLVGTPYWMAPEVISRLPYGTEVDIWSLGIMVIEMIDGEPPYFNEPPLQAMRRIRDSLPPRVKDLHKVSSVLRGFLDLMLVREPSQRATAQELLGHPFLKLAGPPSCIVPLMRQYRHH
Sequence of PAK4 (O96013 whole entry, species assumed): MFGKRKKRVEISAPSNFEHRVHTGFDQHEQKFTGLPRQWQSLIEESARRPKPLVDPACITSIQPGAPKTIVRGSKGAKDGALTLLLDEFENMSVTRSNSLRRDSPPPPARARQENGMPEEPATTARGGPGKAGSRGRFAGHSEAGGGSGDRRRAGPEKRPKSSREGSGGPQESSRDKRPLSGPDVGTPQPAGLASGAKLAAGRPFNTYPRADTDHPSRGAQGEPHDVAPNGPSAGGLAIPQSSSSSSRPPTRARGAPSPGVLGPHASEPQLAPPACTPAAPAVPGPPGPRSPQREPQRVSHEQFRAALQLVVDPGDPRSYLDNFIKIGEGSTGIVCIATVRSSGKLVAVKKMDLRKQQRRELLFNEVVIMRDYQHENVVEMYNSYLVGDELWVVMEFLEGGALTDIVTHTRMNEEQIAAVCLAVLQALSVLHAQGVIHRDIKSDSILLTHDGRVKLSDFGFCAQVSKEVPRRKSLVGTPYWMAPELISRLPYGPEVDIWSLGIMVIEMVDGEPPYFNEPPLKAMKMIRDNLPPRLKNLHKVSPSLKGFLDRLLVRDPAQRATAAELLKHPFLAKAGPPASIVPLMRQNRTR

As to `Oc1ccc2ccccc2c1CSCc1c(O)ccc2ccccc12` [Compound 3], the half-maximal inhibitory concentration (IC50) in the data set with PC3 cells [1] stood at 22.2 µM. Moreover, the “inhibition of PC3 cell motility compared to vehicle (DMSO)-treated control” value in the data set on PC3 cells [2] is on record as “significant anti-cancer cell motility effects”. Also, in the data set with PC3 cells [3], the “induction of apoptosis and necrosis compared to vehicle (DMSO)-treated control” value is “robust induction of apoptosis and necrosis”; the “total cell death compared to IPA-3” value is recorded as “superior efficacy in inducing total cell death”.
Turning to `Oc1ccc2ccccc2c1CCCc1c(O)ccc2ccccc12` [Compound 4], the IC50 in the data set with PC3 cells [1] stood at 15.5 µM. In the data set with PC3 cells [2], the “inhibition of PC3 cell motility compared to vehicle (DMSO)-treated control” value is recorded as “significant anti-cancer cell motility effects”. Further, in the data set with PC3 cells [3], the “induction of apoptosis and necrosis compared to vehicle (DMSO)-treated control” value is “robust induction of apoptosis and necrosis”; the “total cell death compared to IPA-3” value is “superior efficacy in inducing total cell death”.
As for `Oc1ccc2ccccc2c1SSc1c(O)ccc2ccccc12` [IPA-3, 2,2″-dihydroxy-1, 1′-dinaphthyldisulfide], in the data set on PC3 cells [1], the half-inhibitory concentration (IC50) came out at 28 µM. Further, the “inhibition of PAK5” value on PAK5 is reported as “does not inhibit”. Moreover, on PAK6, the “inhibition of PAK6” value is “does not inhibit”. Moreover, the “inhibition of PAK4” value at PAK4 was “does not inhibit”. Further, the “inhibition of PC3 cell motility compared to vehicle (DMSO)-treated control” value in the data set on PC3 cells [2] is “did not show significant inhibition”. Besides, the “induction of apoptosis and necrosis compared to vehicle (DMSO)-treated control” value with PC3 cells [3] is “robust induction of apoptosis and necrosis”. The stability in plasma entry in data set [4] is given as “not very stable”.
For `Oc1ccc2ccccc2c1CSc1c(O)ccc2ccccc12` [Compound 1], the 50% inhibitory concentration (IC50) in the data set on PC3 cells [1] came out at 50.2 µM. Also, the “inhibition of PC3 cell motility compared to vehicle (DMSO)-treated control” value in the data set on PC3 cells [2] is recorded as “did not show significant inhibition”. Further, in the data set on PC3 cells [3], the “induction of apoptosis and necrosis compared to vehicle (DMSO)-treated control” value is “robust induction of apoptosis and necrosis”.

One may read the IC50 as the midpoint of a concentration-inhibition curve.
